Reference: patent US8293231B2, “Methods and compositions for treating ischemia” (Blue Blood Biotech Corp., priority 2005, dated 2012)

Test system: HUVECs
Assay: Chemotaxis assay (Transwell)
Format: cell-based, human
Description: (§1) The chemotactic motility of HUVECs was assayed using Transwell (Costar) with 6.5-mm diameter polycarbonate filters (8-μm pore size). The lower filter surface was coated with 10 μg gelatin (Sigma-Aldrich). Various concentrations of TMD23 in the absence or presence of 10 μg/mL polyclonal rabbit anti-TMD23 antibody or 10 ng/mL vascular endothelial growth factor (VEGF) (R & D Systems, Inc.) in M199 were placed in the lower wells. One hundred mL cell suspension containing 1×10^5 cells was loaded into each of upper well. The chamber was incubated at 37° C. for 4 h. Cells were fixed with methanol and stained with 4′,6′-diamidino-2-phenylindole (DAPI). Chemotaxis was quantified with optical microscopy (Leica) at 100× magnification using MetaMorph imaging software (Universal Imaging Corporation) by counting the cells that migrated to the filter's lower side. Five random fields in each well were counted. Each sample was assayed in triplicate, and assays were repeated three times. To determine the role of extracellular signal-regulated kinase 1/2 (ERK1/2), p38 mitogen-activated protein kinase (MAPK), and phosphatidylinositol 3-kinase (PI3 kinase)-protein kinase B/Akt (Akt) in TMD23-mediated cell migration, assays were performed in the presence of U0126, a MAPK/ERK kinase (MEK) inhibitor, SB 203580, a p38 MAPK inhibitor, and LY 294002, a PI3 kinase inhibitor. Cell viability as determined by trypan blue staining was not altered by treatment. 00126 was purchased from Promega, with SB 203580 and LY 294002 from Calbiochem.
as §1, with “hundred μL” for “hundred mL”, “MAPK/ERK kinase-(MEK)” for “MAPK/ERK kinase (MEK)”, “treatment. U0126” for “treatment. 00126”

Q: Which results are given for “TMD23: Recombinant human thrombomodulin fragment, amino acids Ala242-Ser515 of SEQ ID NO: 2: six EGF-like structures (D2) plus Ser/Thr-rich domain D3”?
A: Effect on HUVEC migration compared with VEGF (10 ng/mL) (10 ng/mL TMD23): comparable with that of VEGF; Migratory activity increased over the control (10 ng/mL TMD23, 4 h): 80%; Chemotactic response in HUVECs (FIG. 2B): markedly induced a dose-dependent chemotactic response
